Some test systems named below: EKVX NSCLC; MALME-3M melanoma; MCF7 breast; MDA-MB-231 breast; OVCAR-5 ovarian; RXF 393 renal; SW-620 colon; T-47D breast; U251 CNS; UO-31 renal.
Holding throughout (assay): NCI tumour cell line growth inhibition, 48 h

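Compound exposure: 48 hours, 5 concentrations, 96-well plates. GI50 marks 50% less growth. TGI is the concentration that stops growth completely.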

Take `COc1cc(Nc2ncc(-c3ccccc3)o2)cc(OC)c1`: the GI50 with EKVX NSCLC was over 25 µM; with MALME-3M melanoma, over 25 µM; in the assay with MCF7 breast, over 25 µM; in the assay with MDA-MB-231 breast, over 25 µM; in the assay with OVCAR-5 ovarian, over 25 µM; in the assay with RXF 393 renal, 8.4 µM. For the same molecule, the GI50 in the assay on SW-620 colon, in the assay with T-47D breast, with U251 CNS and in the assay with UO-31 renal was over 25 µM in each case. In addition, the TGI with EKVX NSCLC, in the assay on MALME-3M melanoma, in the assay with MCF7 breast, in the assay with MDA-MB-231 breast, in the assay with OVCAR-5 ovarian and with RXF 393 renal was over 25 µM in each case. In addition, the TGI in the assay on SW-620 colon, in the assay with T-47D breast, with U251 CNS and in the assay on UO-31 renal was over 25 µM throughout.
Regarding `O=C(Nc1ccccc1)Nc1ccc2cc3ccc(NC(=O)Nc4ccccc4)cc3nc2c1`, the GI50 was 4.29 µM with EKVX NSCLC; 1.54 µM with MALME-3M melanoma; 1.08 µM in the assay with MCF7 breast; 1.4 µM in the assay with MDA-MB-231 breast; 3.1 µM with OVCAR-5 ovarian; 1.49 µM with RXF 393 renal. Also, the GI50 in the assay with SW-620 colon was 0.331 µM; in the assay with T-47D breast, 1.53 µM; with U251 CNS, 0.978 µM; in the assay on UO-31 renal, over 100 µM. Moreover, the TGI in the assay with EKVX NSCLC is over 100 µM; in the assay on MALME-3M melanoma, 3.06 µM; in the assay with MCF7 breast, 3.14 µM; with MDA-MB-231 breast it was 2.8 µM; in the assay with OVCAR-5 ovarian, over 100 µM; in the assay with RXF 393 renal it was 3.61 µM. The TGI is 1.19 µM in the assay on SW-620 colon, 3.08 µM with T-47D breast, 2.28 µM in the assay on U251 CNS and over 100 µM in the assay on UO-31 renal.
On to `COC(=O)c1ccc(CN2C(=O)C(Cl)=C(Nc3cccc(Cl)c3C)C2=O)cc1`, for which the GI50 in the assay with EKVX NSCLC is 46.8 µM; in the assay with MALME-3M melanoma, 2.03 µM; with MCF7 breast, 35.6 µM; with MDA-MB-231 breast, 6.15 µM; with OVCAR-5 ovarian it was 58.1 µM; in the assay with RXF 393 renal it was 33.7 µM. Also, the GI50 with SW-620 colon was 3.45 µM; with T-47D breast, over 100 µM; in the assay on U251 CNS it was 32.4 µM; with UO-31 renal, 15.1 µM. The TGI is over 100 µM with EKVX NSCLC; 9.82 µM in the assay on MALME-3M melanoma; over 100 µM in the assay with MCF7 breast; 47.3 µM in the assay on MDA-MB-231 breast; over 100 µM in the assay on OVCAR-5 ovarian; over 100 µM in the assay with RXF 393 renal. Also, the TGI in the assay with SW-620 colon was 26.4 µM; in the assay on T-47D breast, over 100 µM; with U251 CNS, over 100 µM; in the assay with UO-31 renal, over 100 µM.
Turning to `COc1ccc2c(c1)nc(C(=O)c1ccco1)c(C(F)(F)F)[n+]2[O-]`, the GI50 in the assay on EKVX NSCLC was over 100 µM; in the assay on MALME-3M melanoma, over 100 µM; with MCF7 breast it was over 100 µM; in the assay on MDA-MB-231 breast, over 100 µM; in the assay with OVCAR-5 ovarian, over 100 µM; with RXF 393 renal, 47.5 µM. Moreover, the GI50 was over 100 µM in the assay with SW-620 colon, 77.4 µM with T-47D breast, over 100 µM in the assay on U251 CNS and over 100 µM in the assay with UO-31 renal. Also, the TGI in the assay with EKVX NSCLC, with MALME-3M melanoma, in the assay on MCF7 breast, in the assay with MDA-MB-231 breast, in the assay with OVCAR-5 ovarian and with RXF 393 renal was over 100 µM each time. Besides, the TGI in the assay with SW-620 colon, in the assay with T-47D breast, with U251 CNS and in the assay on UO-31 renal was over 100 µM throughout.
Consider `CCN(Cc1ccccc1)C1CCN(Cc2cc(Br)ccc2O)CC1`, for which the GI50 with EKVX NSCLC was 31.9 µM; in the assay on MALME-3M melanoma, 24 µM; in the assay on MCF7 breast it was 27.8 µM; in the assay on MDA-MB-231 breast it was 31.6 µM; with OVCAR-5 ovarian it was over 100 µM; with RXF 393 renal, 17.5 µM. Further, the GI50 in the assay with SW-620 colon is 27.2 µM; in the assay on T-47D breast, 24 µM; with U251 CNS, 32.5 µM; with UO-31 renal, 24 µM. The TGI with EKVX NSCLC was over 100 µM; with MALME-3M melanoma it was 53 µM; in the assay with MCF7 breast, over 100 µM; in the assay with MDA-MB-231 breast, over 100 µM; in the assay with OVCAR-5 ovarian, over 100 µM; in the assay on RXF 393 renal, 94.6 µM. For the same molecule, the TGI with SW-620 colon, in the assay on T-47D breast, in the assay on U251 CNS and in the assay with UO-31 renal was over 100 µM each time.
Regarding `C[C@]12CC[C@H]3[C@@H](CC=C4C[C@@H](N5CCCC5)CC[C@@]43C)[C@@H]1C/C(=C\c1cccc(OCCN3CCOCC3)c1)[C@@H]2O`, the GI50 is 8.02 µM with EKVX NSCLC; 2.15 µM with MALME-3M melanoma; 19.7 µM with MCF7 breast; 2.24 µM in the assay on MDA-MB-231 breast; 31 µM with OVCAR-5 ovarian; 1.76 µM in the assay on RXF 393 renal. Moreover, the GI50 in the assay with SW-620 colon is 2.82 µM; in the assay with T-47D breast it was 2.67 µM; in the assay with U251 CNS it was 2.95 µM; in the assay with UO-31 renal it was 3.11 µM. Besides, the TGI was over 100 µM with EKVX NSCLC; 6.11 µM in the assay with MALME-3M melanoma; 98.1 µM with MCF7 breast; 5.37 µM in the assay with MDA-MB-231 breast; over 100 µM in the assay with OVCAR-5 ovarian; 3.82 µM in the assay on RXF 393 renal. In addition, the TGI with SW-620 colon was 18.8 µM; with T-47D breast, over 100 µM; in the assay with U251 CNS, over 100 µM; with UO-31 renal, 9.97 µM.

The values above are taken from PubChem BioAssay (NCI).
